Experimental data from US20260256792A1, “TREATMENT OF CHRONIC SPONTANEOUS URTICARIA BY ADMINISTERING (R)-2-[3-[4-AMINO-3-(2-FLUORO-4-PHENOXY-PHENYL)PYRAZOLO[3,4-D]PYRIMIDIN-1-YL]PIPERIDINE-1-CARBONYL]-4-METHYL-4-[4-(OXETAN-3-YL)PIPERAZIN-1-YL]PENT-2-ENENITRILE” (priority 2023, published 2026).

Test system: moderate-to-severe chronic spontaneous urticaria (CSU)
Test: Phase 2 CSU study: itch severity score over 7 days (ISS7)
Assay type: in vivo, human
Text: The study comprises a 12 week, randomized, double-blind, placebo-controlled, multi-center, dose-ranging efficacy and safety phase, followed by a 40 week open label extension (OLE) phase (see FIG. 1). The study consists of three phases and an optional OLE phase. […] Clinically, CSU is characterized by the spontaneous and recurrent appearance of pruritic hives. The proposed primary endpoints were the UAS7 at Week 12 in EU and EU reference countries and the ISS7 in the US. Regardless of where a participant was from, all assessments were the same. The UAS7 score is a composite score containing both the HSS7 and the ISS7. This allowed a global assessment of the two key components of urticaria: hives and itch. […] The UAS is a validated PRO measure. […] The daily UAS scores range from 0 to 6 point/day. […] Patients were to complete the UAS using the e-diary. […] The following secondary endpoints were to be analyzed using the same approach as for the primary endpoint: • Change from baseline in UAS7 at Week 4 • Change from baseline in UAS7 at Week 12 (for US and US reference countries) • Change from baseline in ISS7 at Week 12 (except US and US reference countries) • Change from baseline in HSS7 at Week 12

[1] = Week 2, 400 mg BID, Omalizumab-Naïve
[2] = Week 2, 400 mg BID, Prior Omalizumab Use
[3] = Week 2, 400 mg QPM, Omalizumab-Naïve
[4] = Week 2, 400 mg QPM, Prior Omalizumab Use
[5] = Week 2, 400 mg TID, Omalizumab-Naïve
[6] = Week 2, 400 mg TID, Prior Omalizumab Use
[7] = Week 3, 400 mg BID, Omalizumab-Naïve
[8] = Week 3, 400 mg BID, Prior Omalizumab Use
[9] = Week 3, 400 mg QPM, Omalizumab-Naïve
[10] = Week 3, 400 mg QPM, Prior Omalizumab Use
[11] = Week 3, 400 mg TID, Omalizumab-Naïve
[12] = Week 3, 400 mg TID, Prior Omalizumab Use
[13] = Week 4, 400 mg BID, Omalizumab-Naïve
[14] = Week 4, 400 mg BID, Prior Omalizumab Use
[15] = Week 4, 400 mg QPM, Omalizumab-Naïve
[16] = Week 4, 400 mg QPM, Prior Omalizumab Use
[17] = Week 4, 400 mg TID, Omalizumab-Naïve

SMILES: CC(C)(C=C(C#N)C(=O)N1CCC[C@@H](n2nc(-c3ccc(Oc4ccccc4)cc3F)c3c(N)ncnc32)C1)N1CCN(C2COC2)CC1 [rilzabrutinib, (R)-2-[3-[4-amino-3-(2-fluoro-4-phenoxy-phenyl)pyrazolo[3,4-d]pyrimidin-1-yl]piperidine-1-carbonyl]-4-methyl-4-[4-(oxetan-3-yl)piperazin-1-yl]pent-2-enenitrile]
- ISS7 Percent change from baseline Mean (SD) [1]: −34.40 (31.27) %
- ISS7 Percent change from baseline Median [1]: −25.06%
- ISS7 Change from baseline Mean (SD) [2]: −7.00 (7.04)
- ISS7 Change from baseline Median [2]: −5.50
- ISS7 Mean (SD) [2]: 10.83 (6.85)
- ISS7 Median [2]: 13.50
- ISS7 Percent change from baseline Mean (SD) [2]: −38.76 (40.94) %
- ISS7 Percent change from baseline Median [2]: −28.17%
- ISS7 Change from baseline Mean (SD) [3]: −3.84 (4.75)
- ISS7 Change from baseline Median [3]: −3.00
- ISS7 Median [3]: 12.00
- ISS7 Percent change from baseline Mean (SD) [3]: −22.08 (27.52) %
- ISS7 Percent change from baseline Median [3]: −17.11%
- ISS7 Change from baseline Mean (SD) [4]: −12.00 (NC)
- ISS7 Change from baseline Median [4]: −12.00
- ISS7 Mean (SD) [4]: 9.00 (NC)
- ISS7 Median [4]: 9.00
- ISS7 Percent change from baseline Mean (SD) [4]: −57.14 (NC) %
- ISS7 Percent change from baseline Median [4]: −57.14%
- ISS7 Change from baseline Mean (SD) [5]: −7.29 (6.09)
- ISS7 Change from baseline Median [5]: −7.00
- ISS7 Mean (SD) [5]: 8.40 (5.82)
- ISS7 Median [5]: 8.00
- ISS7 Percent change from baseline Mean (SD) [5]: −46.12 (36.57) %
- ISS7 Percent change from baseline Median [5]: −46.89%
- ISS7 Mean (SD) [6]: 5.50 (6.95)
- ISS7 Median [6]: 4.00
- ISS7 Percent change from baseline Mean (SD) [6]: −69.74 (33.53) %
- ISS7 Percent change from baseline Median [6]: −77.08%
- ISS7 Change from baseline Mean (SD) [7]: −6.29 (5.74)
- ISS7 Change from baseline Median [7]: 5.00
- ISS7 Mean (SD) [7]: 9.16 (6.09)
- ISS7 Median [7]: 9.00
- ISS7 Percent change from baseline Mean (SD) [7]: −40.77 (35.75) %
- ISS7 Percent change from baseline Median [7]: −26.67%
- ISS7 Change from baseline Mean (SD) [8]: −8.31 (8.28)
- ISS7 Change from baseline Median [8]: −9.00
- ISS7 Mean (SD) [8]: 9.53 (7.26)
- ISS7 Percent change from baseline Mean (SD) [8]: −44.35 (43.62) %
- ISS7 Percent change from baseline Median [8]: −47.22%
- ISS7 Change from baseline Mean (SD) [9]: −4.77 (4.84)
- ISS7 Change from baseline Median [9]: −3.67
- ISS7 Mean (SD) [9]: 11.60 (4.68)
- ISS7 Percent change from baseline Mean (SD) [9]: −27.79 (26.72) %
- ISS7 Percent change from baseline Median [9]: −23.81%
- ISS7 Change from baseline Mean (SD) [10]: −12.00 (NC)
- ISS7 Change from baseline Median [10]: −12.00
- ISS7 Mean (SD) [10]: 9.00 (NC)
- ISS7 Median [10]: 9.00
- ISS7 Percent change from baseline Mean (SD) [10]: −57.14 (NC) %
- ISS7 Percent change from baseline Median [10]: −57.14%
- ISS7 Change from baseline Mean (SD) [11]: −7.34 (6.48)
- ISS7 Change from baseline Median [11]: −7.00
- ISS7 Mean (SD) [11]: 8.34 (5.42)
- ISS7 Median [11]: 8.40
- ISS7 Percent change from baseline Mean (SD) [11]: −49.02 (33.06) %
- ISS7 Percent change from baseline Median [11]: −48.53%
- ISS7 Mean (SD) [12]: 5.50 (5.50)
- ISS7 Median [12]: 5.00
- ISS7 Percent change from baseline Mean (SD) [12]: −66.98 (26.87) %
- ISS7 Percent change from baseline Median [12]: −64.58%
- ISS7 Change from baseline Mean (SD) [13]: −6.94 (6.13)
- ISS7 Change from baseline Median [13]: −5.83
- ISS7 Mean (SD) [13]: 8.32 (6.02)
- ISS7 Median [13]: 7.00
- ISS7 Percent change from baseline Mean (SD) [13]: −44.87 (37.61) %
- ISS7 Percent change from baseline Median [13]: −41.67%
- ISS7 Change from baseline Mean (SD) [14]: −11.80 (8.35)
- ISS7 Change from baseline Median [14]: −14.00
- ISS7 Mean (SD) [14]: 6.80 (8.53)
- ISS7 Median [14]: 1.00
- ISS7 Percent change from baseline Mean (SD) [14]: −64.22 (45.05) %
- ISS7 Percent change from baseline Median [14]: −93.33%
- ISS7 Change from baseline Mean (SD) [15]: −4.99 (5.13)
- ISS7 Change from baseline Median [15]: −4.00
- ISS7 Mean (SD) [15]: 11.39 (4.79)
- ISS7 Percent change from baseline Mean (SD) [15]: −28.81 (27.96) %
- ISS7 Percent change from baseline Median [15]: −23.81%
- ISS7 Change from baseline Mean (SD) [16]: −13.00 (NC)
- ISS7 Change from baseline Median [16]: −13.00
- ISS7 Mean (SD) [16]: 8.00 (NC)
- ISS7 Median [16]: 8.00
- ISS7 Percent change from baseline Mean (SD) [16]: −61.90 (NC) %
- ISS7 Percent change from baseline Median [16]: −61.90%
- ISS7 Change from baseline Mean (SD) [17]: −8.30 (5.13)
- ISS7 Change from baseline Median [17]: −8.00
- ISS7 Mean (SD) [17]: 7.79 (5.03)
- ISS7 Median [17]: 7.50
- ISS7 Percent change from baseline Mean (SD) [17]: −51.09 (29.31) %
- ISS7 Percent change from baseline Median [17]: −50.00%
- ISS7 Change from baseline Mean (SD) (Week 4, 400 mg TID, Prior Omalizumab Use): −10.83 (7.32)
